Data: patent US7579323B1, “Hemiasterlin analogs” (The University of British Columbia, priority 1997, dated 2009)
Where a name gives a salt, the structure may show the parent alone. Read-outs that look alike come from different tables or passages of the source.

Assays:
[1] = test system: MCF-7 mp53− cells; assay: Assay for antimitotic activity, ELISA with mitosis-specific antibody TG-3; type: cell-based, human; details: 20 hours incubation, FIG. 6, naturally occurring compound = hemiasterlin
Experimental: Antimitotic activity is detected by enzyme-linked immunosorbent assay using a mitosis-specific antibody, TG-3 (from Albert Einstein College of Yeshiva University, Bronx, N.Y.; and see: PCT application published Jul. 4, 1996 under WO96/20218).
MCF-7 mp 53^− cells (expressing a dominant-negative p53 mutation as described in S. Fan, et al. […] Cancer Research 55:1649-1654) were cultured as monolayers in DMEM supplemented with 10% fetal bovine serum, 2 mM L-glutamine, 50 units/ml penicillin, 50 μg/ml streptomycin, 1 mM sodium pyruvate, MEM non-essential amino acids, 1 μg/ml bovine insulin, 1 μg/ml hydrocortisone, 1 ng/ml human epidermal growth factor, and 1 ng/ml β-estradiol at 37° C. in humidified 5% CO2. The cells were seeded at 10,000 cells per well of 96-well polystyrene tissue culture plates (Falcon) in a volume of 200 μl cell culture medium. The cells were allowed to grow for 24 hours and compounds were added at about 1 μg/ml or 10 μg/ml (from 1000-fold stocks in dimethylsulfoxide) and the cells were incubated for 20 hours. Nocodazole (Sigma) served as a positive control. […] 100 μl of 120 mM Na2HPO41 100 mM citric acid, pH 4.0 containing 0.5 mg/ml 2,2′-azino-bis(3-ethylbenzthiazoline-6-sulfonic acid) and 0.01% hydrogen peroxide was added for 1 hour at room temperature and the plates were read at 405 nm using a BioTek plate reader.

[2] = test system: p53+ and p53− variants of human breast cancer MCF-7 cells and A549 tumor cells; assay: Assay for cytotoxicity (J. Immunol. Methods 65:55-63), SPA-110 compared to hemiasterlin; type: cell-based; details: MCF-7 p53+ and p53− and A549 cells; FIGS. 5A and 5B; naturally occurring compound = hemiasterlin
Experimental: Cytotoxicity of SPA-110 compared to hemiasterlin as against p53+ and p53− variants of human breast cancer MCF-7 cells and A549 tumor cells was determined according to the methods described in J. Immunol. Methods 65:55-63 (1983).

[3] = test system: human colon carcinoma LOVO; type: in vivo, Athymic nu/nu female mice; details: for % T/C day 7 / % T/C day 14 / % T/C day 21 / % T/C day 28: LOVO xenograft, SPA-110 intravenously, Vincristine intraperitoneally, p≦0.05; for % T/C day 7: day 7 post staging; for % T/C day 14: day 14 post staging; for % T/C day 21: day 21 post staging; for % T/C day 28: day 28 post staging
Experimental: The compound SPA-110 was evaluated in vivo using standard pharmacological test procedures which measure its ability to inhibit the growth of human tumor xenografts. The human colon carcinoma LOVO (American Type Culture Collection, Rockville, Md. #CCL-229) was grown in tissue culture in RPMI supplemented with 10% FBS. Athymic nu/nu female mice (Charles River, Wilmington, Mass.) were injected sub-cutaneously in the flank area with 7.0×10^6 LOVO cells. When tumors attained a mass of between 80 and 120 mg, the mice were randomized into treatment groups (day zero). Animals were treated intravenously once a day on days 1, 5, and 9 post staging (day zero) with 1 mg/kg/dose of SPA-110 prepared in 2.5% ethanol in saline or with saline as the vehicle control. Some animals were treated intraperitonealy once a day on days 1, 5 and 9 post staging with 1 mg/kg/dose Vincristine as a positive control. Tumor mass was determined every 7 days [(length×width^2)/2] for 28 days post staging. RTG or relative tumor growth (Mean tumor mass on days 7, 14, 21 and 28 divided by the mean tumor mass on day zero) was determined for each treatment group. % T/C was calculated as RTC (treated group) % RTC (vehicle control group)×100. Statistical analysis (Student-t-test) of log relative tumor growth was used to compare treated verses control group in each experiment. A p-value (p≦0.05), which indicates a statistically significant reduction in relative tumor growth, was obtained in each case. 5 of 5 animals treated at day 28 with SPA-110 survived. 9 of 10 animals treated at day 28 with vincristine survived.

| SMILES | Antimitotic activity compared to hemiasterlin [1] | Cytotoxicity compared to hemiasterlin [2] | Animals surviving at day 28 ([3]; LOVO xenograft mice, day 28, 1 mg/kg/dose on days 1, 5, 9) | % T/C day 7 ([3]; 1 mg/kg/dose on days 1, 5, 9) [%] | % T/C day 14 ([3]; 1 mg/kg/dose on days 1, 5, 9) [%] | % T/C day 21 ([3]; 1 mg/kg/dose on days 1, 5, 9) [%] | % T/C day 28 ([3]; 1 mg/kg/dose on days 1, 5, 9) [%] | Animals surviving at day 28 ([3]; female, athymic nu/nu, mouse, in vivo, 1 mg/kg, 28 days) |
| --- | --- | --- | --- | --- | --- | --- | --- | --- |
| CN[C@H](C(=O)NC(C(=O)N(C)C(/C=C(\C)C(=O)O)C(C)C)C(C)(C)C)C(C)(C)c1ccccc1 (stereo in doubt) [SPA-110, SPA 110-trifluoroacetate salt] | considerably greater antimitotic activity than the naturally occurring compound | more cytotoxic in some instances than the naturally occurring compound | 5 of 5 | 16 | 18 | 30 | 47 | – |
| CC[C@]1(O)C[C@H]2CN(CCc3c([nH]c4ccccc34)[C@@](C(=O)OC)(c3cc4c(cc3OC)N(C=O)[C@H]3[C@@](O)(C(=O)OC)[C@H](OC(C)=O)[C@]5(CC)C=CCN6CC[C@]43[C@@H]65)C2)C1 [Vincristine, reference compound] | – | – | – | 34 | 37 | 44 | 47 | 9 of 10 |
